The values that follow come from patent US20240216313A1, “ELAFIBRANOR DERIVATIVES AGONISTS OF PPAR FOR USE IN THE TREATMENT OF SEPSIS” (Genfit, priority 2021, published 2024).

As usually defined, the inhibition is the drop in the measured response relative to a control, in per cent.

One data set deals with THP1 macrophages. The experiment in a line: Macrophage activation: MCP1 and TNFα secretion induced by LPS from Klebsiella in THP1 macrophages (HTRF). Conditions: 24 h, then LPS Klebsiella 6 h; for inhibition at 10 µM / inhibition at 1 µM: Homo sapiens; for inhibition at 10 µM: THP-1, 10 μM; for inhibition at 1 µM: THP-1, 1 μM. It counts as cell-based, human. Here is the method: (§1) In order to test the efficacy of the compounds on macrophage activation and pro-inflammatory cytokine production, 2.5×10^4 THP-1 cells were cultured in a 384-well plate and treated with 100 ng/mL PMA (#P8139, Sigma) for 24 h to induce differentiation into macrophages.
Then, medium was removed and FBS-deprived medium containing 1 or 10 μM compound was added for 24 h. Finally, THP1 macrophages were stimulated for 6 h with 100 ng/mL LPS (Klebsiella pneumoniae, #L4268, Sigma-Aldrich).
Monocyte chemoattractant protein 1 (MCP1) and […] (TNFα) were measured in cell supernatants by Homogeneous Time Resolved Fluorescence (HTRF, #62[…] for TNFα, and 62HCCL2PEG for MCP1, Cisbio). Fluorescence was measured with Infinite 500 (#30019337, Tecan) to determine the concentration of cytokines.
In general terms: In TR-FRET formats the signal depends on donor and acceptor labels being close together.

The next data set has as its system HepG2 cells. The data set is described as follows: Staurosporin-induced apoptosis in HepG2 cells (caspase 3/7 activity, Caspase Glo). It counts as cell-based, human. Particulars: 16 h pre-treatment, then 10 μM staurosporin 4 h; for inhibition at 0.3 µM: Homo sapiens, HepG2, 0.3 μM, read-out: % Inhibition of caspase activity over mean Veh. Here is the method: In order to evaluate the effect of the compounds on human hepatocytes that undergo a cellular stress induced by staurosporin, the human hepatoblastoma-derived HepG2 cell line (ECACC, #85011430, Sigma-Aldrich) was cultured in high-glucose DMEM medium (#41965, Gibco, France) supplemented with 10% of fetal bovine serum (FBS, #10270, Gibco), 1% penicillin/streptomycin (#15140, Gibco), 1% sodium pyruvate (#11360, Gibco) and 1% MEM non-essential amino acids (#11140, Gibco) in a 5% CO2 incubator at 37° C.
To evaluate caspase 3/7 activity, which is a surrogate marker of apoptosis, 1.5×10^4 cells were plated in a 384-well plate (#781080, Greiner, France). After cell adherence (8 hours), cells were serum starved for 16 h in the presence of 0.3 μM of compounds or vehicle. Cpd.1 was also used at 3 and 10 μM. Thereafter, cells were treated with 10 μM staurosporin (#569397, Sigma-Aldrich, Germany) supplemented with compound for additional 4 hours before cell lysis and caspase activity measurement.
Caspase 3/7 activity was measured using Caspase Glow™ 3/7 assay (#G8093, Promega, USA). Luminescence was measured using a Spark microplate reader (#30086376, Tecan, USA). The amount of luminescence (RLU) directly correlates with caspase 3/7 activity.

The subject of data set [1] is CLP induced polymicrobial sepsis. The data set is described as follows: Cecal ligation and puncture (CLP) model of polymicrobial sepsis: survival. Type of data set: in vivo, C57BL6J male mice. Particulars: mice, 0.3 mg/kg p.o. The method, then: This study aims to investigate the efficacy of Cpd.1 in cecal ligation and puncture (CLP) model in C57BL6J (BL6) male mice. The efficacy of the test compound was evaluated based on the survival rate of the animals within the study period.
C57BL6J male mice (supplier Janvier—France) at 9 weeks of age and weighing 23-25 g on arrival were anesthetized with 250 μL of xylazine/ketamine solution (20 mg/100 g body weight) by intraperitoneal route. A 1-1.5 cm abdominal midline incision was made, and the caecum was located and tightly ligated at half the distance between distal pole and the base of the cecum with 4-0 silk suture (mild grade). The caecum was punctured through-and-through once with a 21-gauge needle from mesenteric toward antimesenteric direction after medium ligation. A small amount of stool was extruded to ensure that the wounds were patent. Then the cecum was replaced in its original position within the abdomen, which was closed with sutures and wound clips. Mice were followed for body weight evolution and mortality rate until Day 6.
Cpd.1 or vehicle (Labrafil M 1944 CS, #3063, Gattefossé) was administrated at 0.3 mg/kg, p.o. for three days before CLP surgery. The day of CLP (day 0), Cpd.1 was administrated 1 h before surgery and pursued daily until day 6. Experiment was terminated at day 7.
Two groups of C57BL6J mice at the age of 9 weeks were treated as described above. • 1. […]

The test system of data set [2] is THP1 differentiated macrophages. The experiment in a line: Macrophage activation: cytokine production by THP1 differentiated macrophages stimulated with LPS (E. coli O55:B5). Conditions: compound 24 h, then 100 ng/mL LPS E. coli 6 h. Type of data set: cell-based, human. The method, then: as §1
Then, medium was removed and FBS-deprived medium containing the compound of formula (I) was added for 24 h. Finally, THP1 macrophages were stimulated with 100 ng/mL LPS (E. coli O55:B5, #L4005, Sigma) for 6 h.

The test system of a further data set is LPS-induced endotoxemia. The data set is described as follows: Preclinical model of endotoxemia: hepatic markers (total bilirubin, albumin) and TNFα in rat serum. It counts as in vivo, male Sprague Dawley rats. Particulars: rats, 3 mg/kg/day oral gavage 3 days before LPS, blood 3 h after LPS.
Where [3] appears, read: read-out: % inhibition of MCP1 secretion over mean Veh.
The mark [4] stands for this setting: read-out: % inhibition of TNFα secretion over mean Veh.

Read-outs that look alike come from different tables or passages of the source.

For `CSc1ccc(C(CCc2cc(C)c(OC(C)(C)C(=O)O)c(C)c2)OC(C)C)cc1` (stereo not drawn) [Cpd. 5, 2-[2,6-dimethyl-4-[3-[4-(methylthio)phenyl]-3-isopropyloxypropyl]phenoxy]-2-methylpropanoic acid], in the data set with THP1 macrophages (setting [3]), the inhibition at 10 µM is 110%.

Turning to `Cc1cc(CCC(O)c2ccc(OC(F)(F)F)cc2)cc(C)c1OC(C)(C)C(=O)O` (stereo not drawn) [Cpd. 6, 2-(4-(3-hydroxy-3-(4-(trifluoromethoxy)phenyl)propyl)-2,6-dimethylphenoxy)-2-methylpropanoic acid], in the data set with THP1 macrophages (setting [3]), the inhibition at 10 µM amounted to 103%. Also, the inhibition at 0.3 µM with HepG2 cells amounted to 43%.

Regarding `CCc1ccc(CCOc2ccc(CC3SC(=O)NC3=O)cc2)nc1` (stereo not drawn) [Cpd. 21, pioglitazone, reference compound], the inhibition at 10 µM in the data set with THP1 macrophages (setting [3]) turned out to be 121%; with THP1 macrophages (setting [4]), 19%. Further, the inhibition at 0.3 µM in the data set with HepG2 cells was 60%.

Consider `O=C(O)CCCc1cc2cc(Cl)ccc2n1S(=O)(=O)c1ccc2ncsc2c1` [Cpd. 23, lanifibranor, reference compound], for which the inhibition at 10 µM was 126% in the data set on THP1 macrophages (setting [3]) and 32% in the data set on THP1 macrophages (setting [4]).

Turning to `CON=C(CCc1cc(C)c(OC(C)(C)C(=O)O)c(C)c1)c1ccc(OC(F)(F)F)cc1` [Cpd. 7, 2-(4-(3-(methoxyimino)-3-(4-(trifluoromethoxy)phenyl)propyl)-2,6-dimethylphenoxy)-2-methylpropanoic acid], the results for the inhibition at 10 µM with THP1 macrophages (setting [3]) and with THP1 macrophages (setting [4]) were 107% and 42%, respectively. The inhibition at 0.3 µM in the data set on HepG2 cells is 66%.

Take `COC(CCc1cc(C)c(OC(C)(C)C(=O)O)c(C)c1)c1ccc(SC)cc1` (stereo not drawn) [Cpd. 13, 2-[2,6-dimethyl-4-[3-[4-(methylthio)phenyl]-3-methoxypropyl]phenoxy]-2-methylpropanoic acid]: in the data set with THP1 macrophages (setting [3]), the inhibition at 1 µM was determined as 99% and the inhibition at 10 µM was 111%. Further, in the data set with THP1 macrophages (setting [4]), the inhibition at 1 µM worked out at 0% and the inhibition at 10 µM was 18%. Moreover, the “% Inhibition of caspase activity over mean Veh.” value in the data set on HepG2 cells (0.3 μM) is recorded as 79%.

Take `CCOC(CCc1ccc(OC(C)(C)C(=O)O)c(Cl)c1Cl)c1sc(-c2ccc(C(F)(F)F)cc2)nc1C` (stereo not drawn) [Cpd. 9, 2-(2,3-dichloro-4-(3-ethoxy-3-(4-methyl-2-(4-(trifluoromethyl)-phenyl)thiazol-5-yl)propyl)phenoxy)-2-methylpropanoic acid]: the inhibition at 10 µM in the data set with THP1 macrophages (setting [3]) amounted to 127%; in the data set with THP1 macrophages (setting [4]), 77%.

Regarding `COC(CCc1cc(C)c(OC(C)(C)C(=O)O)c(C)c1)c1ccc(OC(F)(F)F)cc1` (stereo not drawn) [Cpd. 1, 2-[4-(3-methoxy-3-(4-(trifluoromethoxy)phenyl)propyl)-2,6-dimethylphenoxy]-2-methylpropanoic acid], in the data set on HepG2 cells (0.3, 3 and 10 μM), the “reduction of staurosporin-induced caspase activity, dose dependence” value is recorded as “reduced caspase activity induced by staurosporin in a dose-dependent manner”. In data set [1], the “side effect recorded after each administration” value is “No side effect”. In addition, the “reduction of TNFα secretion” value in data set [2] is “potent at reducing TNFα”. The “reduction of MCP1 secretion” value in data set [2] (all doses tested) is “overpassing the untreated condition for MCP1 secretion at all doses tested”. In the data set on LPS-induced endotoxemia, the “serum total bilirubin level compared to the vehicle condition” value is “completely restored the level of total bilirubin”.

As for `Cc1cc(CCC(=O)c2ccc(OC(F)(F)F)cc2)cc(C)c1OC(C)(C)C(=O)O` [Cpd. 2, 2-[2,6-dimethyl-4-[3-[4-(trifluoromethyloxy)phenyl]-3-oxo-propyl]phenoxy]-2-methylpropanoic acid], the inhibition at 10 µM in the data set on THP1 macrophages (setting [3]) amounted to 106%. Further, the inhibition at 0.3 µM in the data set on HepG2 cells was determined as 70%.

Regarding `Cc1cc(CCC(=O)c2ccc(C(F)(F)F)cc2)cc(C)c1OC(C)(C)C(=O)O` [Cpd. 3, 2-[2,6-dimethyl-4-[3-[4-(trifluoromethyl)phenyl]-3-oxo-propyl]phenoxy]-2-methylpropanoic acid], the results for the inhibition at 10 µM in the data set on THP1 macrophages (setting [3]) and in the data set on THP1 macrophages (setting [4]) were 107% and 20%, respectively.

Consider `COC(CCc1cc(C)c(OC(C)(C)C(=O)O)c(C)c1)c1ccc(Br)cc1` (stereo not drawn) [Cpd. 14, 2-[2,6-dimethyl-4-[3-[4-bromophenyl]-3-methoxypropyl]phenoxy]-2-methylpropanoic acid], for which the inhibition at 10 µM with THP1 macrophages (setting [3]) was determined as 107%; in the data set with THP1 macrophages (setting [4]) it was 28%. Moreover, in the data set with HepG2 cells, the inhibition at 0.3 µM turned out to be 77%.

Regarding `CC[C@@H](Oc1cccc(CN(CCCOc2ccc(OC)cc2)c2nc3ccccc3o2)c1)C(=O)O` [Cpd. 18, pemafibrate, reference compound], the inhibition at 10 µM in the data set with THP1 macrophages (setting [3]) came to 123%.

Consider `CN(CCOc1ccc(CC2SC(=O)NC2=O)cc1)c1ccccn1` (stereo not drawn) [Cpd. 22, rosiglitazone, reference compound], for which, in the data set with THP1 macrophages (1 μM), the “% inhibition of MCP1 secretion over mean Veh.” value amounted to 79% and the “% inhibition of TNFα secretion over mean Veh.” value is 36%. Besides, in the data set on THP1 macrophages (10 μM), the “% inhibition of MCP1 secretion over mean Veh.” value came to 117% and the “% inhibition of TNFα secretion over mean Veh.” value amounted to 11%.

On to `CC(C)(Oc1ccc(CCNC(=O)c2ccc(Cl)cc2)cc1)C(=O)O` [Cpd. 17, bezafibrate, reference compound], for which the inhibition at 10 µM with THP1 macrophages (setting [3]) amounted to 54%.
